Reference: PMC6779124 (ACS infectious diseases, 2018)

Biological target: Stk1 kinase domain (Staphylococcus aureus, UniProt A0A0H2XGG5)
Assay: […]-ATP autoradiography, autophosphorylation and MBP phosphorylation
Format: biochemical
Conditions: […] kinase domain, […] MBP, […] ATP, […] MnCl2, pH […] °C

Row | SMILES | 32P-ATP autoradiography, autophosphorylation and MBP phosphorylation | 32P-ATP autoradiography, autophosphorylation and MBP phosphorylation (inhibitor […])
1 | CN1CCN(c2ccc(Nc3nccc(-c4cnn5ncccc45)n3)cc2)CC1 [CAF045, N-(4-(4-Methylpiperazin-1-yl)phenyl)-4-(pyrazolo-[1,5-b]pyridazin-3-yl)pyrimidin-2-amine] | CAF045 and CAF077, displayed an intermediate phenotype with partial Stk1 inhibition | 
2 | CN1CCN(c2ccc(Nc3nccc(-c4cnn5ncccc45)n3)cc2F)CC1 [CAF052, N-(3-Fluoro-4-(4-methylpiperazin-1-yl)phenyl)-4-(pyrazolo[1,5-b]pyridazin-3-yl)pyrimidin-2-amine] |  | CAF052 and CAF078 robustly inhibited Stk1 kinase activity like the GW779439X control
3 | CN1CCN(c2cccc(Nc3nccc(-c4cnn5ncccc45)n3)c2)CC1 [CAF077, N-(3-(4-Methylpiperazin-1-yl)phenyl)-4-(pyrazolo-[1,5-b]pyridazin-3-yl)pyrimidin-2-amine] | CAF045 and CAF077, displayed an intermediate phenotype with partial Stk1 inhibition | 
4 | CN1CCN(c2ccc(Nc3nccc(-c4cnn5ncccc45)n3)cc2C#N)CC1 [CAF078, 2-(4-Methylpiperazin-1-yl)-5-((4-(pyrazolo-[1,5-b]-pyridazin-3-yl)pyrimidin-2-yl)amino)benzonitrile] | CAF052 and CAF078 robustly inhibited Stk1 kinase activity like the GW779439X control | 
